Reference: the supplement of paper PMC10307832

What was measured:
Experiment in all cases: relative viability (nuclei count vs DMSO), 5 days (fraction); higher = more cells survive
Sunitinib + Trametinib = compound: CCN(CC)CCNC(=O)c1c(C)[nH]c(/C=C2\C(=O)Nc3ccc(F)cc32)c1C [Sunitinib] + CC(=O)Nc1cccc(-n2c(=O)n(C3CC3)c(=O)c3c(Nc4ccc(I)cc4F)n(C)c(=O)c(C)c32)c1 [Trametinib] (partner 0.02 µM)
How it was run: (§1)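 Nuclei were stained with Hoechst during a one-step fixation (final 0.05% Triton X-100, 1% formaldehyde, 1 ug/ml Hoechst) carried out 5 days after dosing, then counted on 4× images. The cells, lung cancer lines in 1536-well plates, had been dosed by pin tool the day after seeding with one drug alone or a fixed anchor-drug dose plus five library-drug doses (not always all listed) in √10 steps. Relative viability is the nuclei count in treated wells divided by that in vehicle wells, and each value is the median of duplicate plates.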

Sunitinib + OSI-027 = compound: CCN(CC)CCNC(=O)c1c(C)[nH]c(/C=C2\C(=O)Nc3ccc(F)cc32)c1C [Sunitinib] + COc1cccc2cc(-c3nc([C@H]4CC[C@H](C(=O)O)CC4)n4ncnc(N)c34)[nH]c12 [OSI-027] (partner 0.5 µM)
How it was run: as §1

Sunitinib + Lapatinib = compound: CCN(CC)CCNC(=O)c1c(C)[nH]c(/C=C2\C(=O)Nc3ccc(F)cc32)c1C [Sunitinib] + CS(=O)(=O)CCNCc1ccc(-c2ccc3ncnc(Nc4ccc(OCc5cccc(F)c5)c(Cl)c4)c3c2)o1 [Lapatinib] (partner 2 µM)
How it was run: as §1

Sunitinib + Linsitinib = compound: CCN(CC)CCNC(=O)c1c(C)[nH]c(/C=C2\C(=O)Nc3ccc(F)cc32)c1C [Sunitinib] + C[C@]1(O)C[C@@H](c2nc(-c3ccc4ccc(-c5ccccc5)nc4c3)c3c(N)nccn32)C1 [Linsitinib] (partner 1 µM)
How it was run: as §1

| Cell Line | relative viability (Sunitinib + Trametinib; first compound 0.02 µM) | relative viability (Sunitinib + Trametinib; first compound 0.06325 µM) | relative viability (Sunitinib + Trametinib; first compound 0.2 µM) | relative viability (Sunitinib + Trametinib; first compound 0.6325 µM) | relative viability (Sunitinib + Trametinib; first compound 2 µM) | relative viability (Sunitinib + OSI-027; first compound 0.02 µM) | relative viability (Sunitinib + OSI-027; first compound 0.06325 µM) | relative viability (Sunitinib + OSI-027; first compound 0.2 µM) | relative viability (Sunitinib + OSI-027; first compound 0.6325 µM) | relative viability (Sunitinib + OSI-027; first compound 2 µM) | relative viability (Sunitinib + Lapatinib; first compound 0.02 µM) | relative viability (Sunitinib + Lapatinib; first compound 0.06325 µM) | relative viability (Sunitinib + Lapatinib; first compound 0.2 µM) | relative viability (Sunitinib + Lapatinib; first compound 0.6325 µM) | relative viability (Sunitinib + Lapatinib; first compound 2 µM) | relative viability (Sunitinib + Linsitinib; first compound 0.02 µM) | relative viability (Sunitinib + Linsitinib; first compound 0.06325 µM) | relative viability (Sunitinib + Linsitinib; first compound 0.2 µM) | relative viability (Sunitinib + Linsitinib; first compound 0.6325 µM) | relative viability (Sunitinib + Linsitinib; first compound 2 µM) |
| --- | --- | --- | --- | --- | --- | --- | --- | --- | --- | --- | --- | --- | --- | --- | --- | --- | --- | --- | --- | --- |
| NCI-H2126 | 0.545 | 0.59 | 0.612 | 0.573 | 0.605 | 0.738 | 0.665 | 0.988 | 0.773 | 0.672 | 0.677 | 0.781 | 0.808 | 0.809 | 0.807 | 0.719 | 0.695 | 0.74 | 0.759 | 0.717 |
| NCI-H2228 | 0.574 | 0.568 | 0.593 | 0.558 | 0.285 | 0.523 | 0.658 | 0.625 | 0.529 | 0.411 | 1.04 | 1.23 | 1.13 | 1.16 |  | 0.611 | 0.584 | 0.841 | 0.808 | 0.349 |
| NCI-H2347 | 0.293 | 0.251 | 0.24 | 0.314 | 0.296 | 0.451 | 0.507 | 0.67 | 0.384 | 0.552 | 0.873 |  | 1.17 | 1.03 | 0.95 | 0.93 | 0.991 | 1.11 | 0.991 | 0.978 |
| NCI-H2405 | 0.59 | 0.582 | 0.662 | 0.672 | 0.628 | 0.647 | 0.643 | 0.631 | 0.65 | 0.673 | 1.03 | 1.21 | 1.18 | 1.18 |  |  | 1.02 | 0.976 | 1.08 | 0.917 |
| NCI-H3122 | 0.289 | 0.287 | 0.231 | 0.233 | 0.299 | 0.874 |  | 1.06 | 0.917 | 0.69 | 0.907 | 0.985 | 1.04 |  | 0.992 | 1.02 | 1.07 | 1.04 | 0.992 | 1.05 |
| PC-3 [JPC-3] | 0.754 | 0.715 | 0.667 | 0.772 | 0.59 | 0.807 | 0.773 | 0.743 | 0.82 | 0.754 | 0.456 | 0.459 | 0.494 | 0.464 | 0.5 | 0.978 | 0.975 | 0.951 | 0.987 | 0.881 |
| PC-14 | 0.665 | 0.743 | 0.833 | 0.771 | 0.579 | 0.716 | 0.893 | 1.02 | 0.795 | 0.695 | 0.301 | 0.332 | 0.369 | 0.33 | 0.314 |  | 1.05 | 1.04 | 1.02 | 0.881 |
| RERF-LC-KJ | 0.903 | 0.854 | 0.953 | 0.87 | 0.86 | 0.55 | 0.574 | 0.689 | 0.626 | 0.525 | 0.887 | 0.844 |  |  | 0.828 | 0.868 | 0.869 | 0.968 | 1.07 | 0.855 |
| SK-LU-1 | 0.432 | 0.518 | 0.545 | 0.537 | 0.525 | 0.323 | 0.387 | 0.4 | 0.348 | 0.199 | 0.942 | 0.853 | 1.06 | 1.02 | 0.809 | 1.29 | 1.09 | 1.28 |  |  |
| SK-MES-1 | 0.526 | 0.528 | 0.555 | 0.575 | 0.459 | 0.583 | 0.63 | 0.681 | 0.719 | 0.56 | 0.471 | 0.502 | 0.487 | 0.481 | 0.419 | 0.982 | 1.1 | 1.12 | 1.08 | 1.03 |
| SW 1573 | 0.522 | 0.626 | 0.515 | 0.729 | 0.582 | 0.617 | 0.938 | 0.779 | 0.781 | 0.671 | 1.19 | 1.3 | 1.31 | 1.14 |  | 0.987 | 1 | 0.917 | 0.999 |  |
| UMC-11 | 0.709 | 0.793 | 0.811 | 0.787 | 0.783 | 0.401 | 0.526 | 0.54 | 0.494 | 0.462 | 0.984 |  | 1.07 | 1.03 | 0.967 | 0.958 | 0.958 | 1.08 | 1.01 | 0.914 |
